Assay results as given in patent publication US11427548B2 (Arvinas Operations, Inc., priority 2015, dated 2022).
Where two headings read alike, the source gives them in different places.

Target: T1, Androgen Receptor (Homo sapiens, UniProt P10275)
T1 construct: endogenous in cells; host or cells: VCaP cells
T1 sequence (P10275 1-920): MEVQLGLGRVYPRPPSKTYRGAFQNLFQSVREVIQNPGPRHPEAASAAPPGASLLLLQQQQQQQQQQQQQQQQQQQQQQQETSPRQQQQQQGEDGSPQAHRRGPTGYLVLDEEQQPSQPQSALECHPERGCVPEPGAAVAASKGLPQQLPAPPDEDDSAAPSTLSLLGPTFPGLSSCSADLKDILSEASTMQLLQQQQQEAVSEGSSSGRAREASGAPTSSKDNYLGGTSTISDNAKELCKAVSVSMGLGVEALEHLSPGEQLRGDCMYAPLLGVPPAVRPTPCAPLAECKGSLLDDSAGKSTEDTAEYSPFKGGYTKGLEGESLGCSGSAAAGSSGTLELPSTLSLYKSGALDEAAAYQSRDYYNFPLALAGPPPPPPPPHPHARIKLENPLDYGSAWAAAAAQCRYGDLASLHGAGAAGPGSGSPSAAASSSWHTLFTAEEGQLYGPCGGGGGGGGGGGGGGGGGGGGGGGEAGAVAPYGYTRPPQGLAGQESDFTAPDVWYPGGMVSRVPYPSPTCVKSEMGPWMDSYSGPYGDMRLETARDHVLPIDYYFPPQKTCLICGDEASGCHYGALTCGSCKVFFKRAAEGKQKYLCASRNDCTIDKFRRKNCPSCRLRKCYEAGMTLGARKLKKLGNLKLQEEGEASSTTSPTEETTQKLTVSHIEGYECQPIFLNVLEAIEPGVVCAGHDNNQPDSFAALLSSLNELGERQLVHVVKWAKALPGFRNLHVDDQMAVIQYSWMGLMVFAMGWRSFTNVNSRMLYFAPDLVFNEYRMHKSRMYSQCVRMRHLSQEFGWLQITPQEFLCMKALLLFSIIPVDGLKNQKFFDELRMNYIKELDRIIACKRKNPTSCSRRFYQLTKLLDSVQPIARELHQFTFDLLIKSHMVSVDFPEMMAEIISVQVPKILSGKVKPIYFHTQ
Test: Androgen Receptor ELISA assay (PathScan AR ELISA) in VCaP cells: AR degradation, Dmax and DC50
Assay type: cell-based
Outline: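 VCaP cells, 30,000/well, grown ≥3 days in phenol red-free RPMI with 5% charcoal-stripped FBS; compound added in 0.1% DMSO with 0.1 nM R1881, 7 half-log doses, 24 h. Lysate AR quantified by PathScan sandwich ELISA, HRP/TMB read at 450 nm, giving DC50 and Dmax.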

[1] = VCaP cells; Table 36; read-out: VCaP DC50
[2] = VCaP, VCaP cells; Table 36; read-out: VCaP Dmax (%)
[3] = VCaP cells; Table 34; read-out: VCaP DC50
[4] = VCaP, VCaP cells; Table 34; read-out: VCaP Dmax (%)
[5] = read-out: VCaP DC50; VCaP cells; Table 34

`Cc1ncsc1-c1ccc([C@H](C)NC(=O)C2C[C@@H](O)CN2C(=O)[C@@H](NC(=O)COCCN2C[C@@H](C)N(c3ccc(C(=O)N[C@H]4C(C)(C)[C@H](Oc5ccc(C#N)c(Cl)c5)C4(C)C)cn3)[C@@H](C)C2)C(C)(C)C)cc1` (stereo partly drawn) [Example 813, N-((1r,3R)-3-(3-chloro-4-cyanophenoxy)-2,2,4,4-tetramethylcyclobutyl)-6-((2S,6R)-4-(2-(2-(((2S)-1-((4R)-4-hydroxy-2-(((S)-1-(4-(4-methylthiazol-5-yl)phenyl)ethyl)carbamoyl)pyrrolidin-1-yl)-3,3-dimethyl-1-oxobutan-2-yl)amino)-2-oxoethoxy)ethyl)-2,6-dimethylpiperazin-1-yl)nicotinamide] was tested, and the DC50 [1] was < 50 nM and the Dmax [2] was > 71%.
For `Cc1ncsc1-c1ccc(CNC(=O)[C@@H]2C[C@@H](O)CN2C(=O)[C@@H](NC(=O)COCCCCNc2ccc(-c3ccc(N4C(=S)N(c5ccc(C#N)c(C(F)(F)F)c5)C(=O)C4(C)C)cc3)cn2)C(C)(C)C)cc1` [Example 554], the Dmax (VCaP, read-out: VCaP Dmax (%)) was 51 to 70% and the DC50 (read-out: VCaP DC50; VCaP cells; Table 35) was < 50 nM.
With `Cc1ncsc1-c1ccc(CNC(=O)[C@@H]2C[C@@H](O)CN2C(=O)[C@@H](NC(=O)COCCCCNC(=O)c2ccc(C(=O)N[C@H]3C(C)(C)[C@H](Oc4ccc(C#N)c(Cl)c4)C3(C)C)cc2)C(C)(C)C)cc1` [Example 398] the DC50 [3] was < 50 nM and the Dmax [4] was 26 to 50%.
With `Cc1ncsc1-c1ccc([C@H](C)NC(=O)[C@@H]2C[C@@H](O)CN2C(=O)[C@@H](NC(=O)[C@H](CO)N2CCN(CCOc3ccc(C(=O)N[C@H]4C(C)(C)[C@H](Oc5ccc(C#N)c(Cl)c5)C4(C)C)cc3)CC2)C(C)(C)C)cc1` [Example 655, (2S,4R)-1-((S)-2-((S)-2-(4-(2-(4-(((1r,3r)-3-(3-chloro-4-cyanophenoxy)-2,2,4,4-tetramethylcyclobutyl)carbamoyl)phenoxy)eth-yl)piperazin-1-yl)-3-hydroxypropanamido)-3,3-dimethylbutanoyl)-4-hydroxy-N-((S)-1-(4-(4-methylthiazol-5-yl)phenyl)ethyl)pyrrolidine-2-carboxamide] the DC50 [1] was > 501 nM and the Dmax (VCaP, read-out: VCaP Dmax (%)) was 26 to 50%.
`Cc1ncsc1-c1ccc(CNC(=O)[C@@H]2C[C@@H](O)CN2C(=O)[C@@H](NC(=O)CCN2CCC(OCCOc3ccc(N4C(=S)N(c5ccc(C#N)c(C(F)(F)F)c5)C(=O)C4(C)C)cc3)CC2)C(C)(C)C)cc1` [Example 324] was tested, and the Dmax (VCaP, read-out: VCaP Dmax (%)) was 26 to 50% and the DC50 [5] was 51 to 500 nM.
`Cc1ncsc1-c1ccc([C@H](C)NC(=O)[C@@H]2C[C@@H](F)CN2C(=O)[C@@H](NC(=O)COCCN2CCN(c3ccc(C(=O)N[C@H]4C(C)(C)[C@H](Oc5ccc(C#N)c(Cl)c5)C4(C)C)cn3)CC2)C(C)(C)C)cc1` [Example 720, N-((1r,3r)-3-(3-chloro-4-cyanophenoxy)-2,2,4,4-tetramethylcyclobutyl)-6-(4-(2-(2-(((S)-1-((2S,4R)-4-fluoro-2-(((S)-1-(4-(4-methylthiazol-5-yl)phenyl)ethyl)carbam-oyl)pyrrolidin-1-yl)-3,3-dimethyl-1-oxobutan-2-yl)amino)-2-oxoethoxy)ethyl)pipera-zin-1-yl)nicotinamide] was tested, and the DC50 [1] was > 501 nM and the Dmax (VCaP, read-out: VCaP Dmax (%), VCaP cells; Table 36) was < 25%.
For `Cc1ncsc1-c1ccc([C@H](C)NC(=O)[C@@H]2C[C@@H](O)CN2C(=O)[C@@H](NC(=O)CCCCC(CCCc2ccc(C(=O)N[C@H]3C(C)(C)[C@H](Oc4ccc(C#N)c(Cl)c4)C3(C)C)nc2)N2CCN(C)CC2)C(C)(C)C)cc1` (stereo partly drawn) [Example 687, N-((1R,3R)-3-(3-chloro-4-cyanophenoxy)-2,2,4,4-tetramethylcyclobutyl)-5-(9-(((S)-1-((2S,4R)-4-hydroxy-2-(((S)-1-(4-(4-methylthiazol-5-yl)phenyl)ethyl)carbam-oyl)pyrrolidin-1-yl)-3,3-dimethyl-1-oxobutan-2-yl)amino)-4-(4-methylpiperazin-1-yl)-9-oxononyl)picolinamide], the DC50 [1] was 51 to 500 nM and the Dmax [2] was 26 to 50%.
In the case of `Cc1nccn1-c1ccc([C@H](C)NC(=O)[C@@H]2C[C@@H](O)CN2C(=O)[C@H](C(C)C)n2cc(OCCCOCCCCCOc3ccc(N4C(=S)N(c5ccc(C#N)c(C(F)(F)F)c5)C(=O)C4(C)C)cc3)cn2)cc1` [Example 611, (2S,4R)-1-((S)-2-(4-(3-((5-(4-(3-(4-cyano-3-(trifluoromethyl)phenyl)-5,5-dimethyl-4-oxo-2-thioxoimidazolidin-1-yl)phenoxy)pentyl)oxy)propoxy)-1H-pyrazol-1-yl)-3-methylbutanoyl)-4-hydroxy-N-((S)-1-(4-(2-methyl-1H-imidazol-1-yl)phenyl)ethyl)pyrrolidine-2-carboxamide], the Dmax (VCaP, read-out: VCaP Dmax (%)) is reported as < 25% and the DC50 (read-out: VCaP DC50; VCaP cells; Table 36) is reported as > 501 nM.
With `Cc1ncsc1-c1ccc(CNC(=O)[C@@H]2C[C@@H](O)CN2C(=O)[C@@H](NC(=O)COCCCC[C@@H](C)Oc2ccc(C(=O)N[C@H]3C(C)(C)[C@H](Oc4ccc(C#N)c(Cl)c4)C3(C)C)cc2)C(C)(C)C)cc1` [Example 160, (2S,4R)-1-[(2S)-3,3-dimethyl-2-(2-{[(5S)-5-(4-{[trans-3-(3-chloro-4-cyanophenoxy)-2,2,4,4-tetramethylcyclobutyl]carbamoyl}phen-oxy)hexyl]oxy}acetamido)butanoyl]-4-hydroxy-N-{[4-(4-methyl-1,3-thiazol-5-yl)phenyl]methyl}pyrrolidine-2-carboxamide] the Dmax (VCaP, highest percentage of Androgen Receptor degradation observed, VCaP cells (Table 32); read-out: VCaP Dmax (%)) was > 71% and the DC50 (concentration that caused 50% Androgen Receptor degradation, VCaP cells (Table 32); read-out: VCaP DC50) was < 50 nM.
For `CC(C)(C)[C@H](NC(=O)COCCCOCCCCOc1ccc(N2C(=S)N(c3ccc(C#N)c(Cl)c3)C(=O)C2(C)C)c(F)c1)C(=O)N1C[C@H](O)C[C@H]1C(=O)NCc1ccc(-c2cnco2)cc1` [Example 336], the Dmax (VCaP, read-out: VCaP Dmax (%)) was > 71% and the DC50 [5] was < 50 nM.
With `Cc1ncsc1-c1ccc(CNC(=O)[C@@H]2C[C@@H](O)CN2C(=O)[C@@H](NC(=O)COCCCCOCCCCOc2ccc(N3C(=S)N(c4ccc(C#N)c(C(F)(F)F)c4)C(=O)C3(C)C)cc2F)C(C)(C)C)cc1` [Example 26, (2S,4R)-1-[(2S)-2-(2-{4-[4-(4-{3-[4-cyano-3-(trifluoromethyl)phenyl]-5,5-dimethyl-4-oxo-2-sulfanylideneimidazolidin-1-yl}-2-fluorophenoxy)butoxy]butoxy}acetamido)-3,3-dimethylbutanoyl]-4-hydroxy-N-{[4-(4-methyl-1,3-thiazol-5-yl)phenyl]methyl}pyrrolidine-2-carboxamide] the Dmax (VCaP, read-out: VCaP Dmax (%)) was 51 to 70% and the DC50 (read-out: VCaP DC50; concentration that caused 50% Androgen Receptor degradation, VCaP cells) was < 50 nM.
In the case of `Cc1ncsc1-c1ccc([C@H](C)NC(=O)[C@@H]2C[C@@H](O)CN2C(=O)[C@@H](c2ncc(CCCN3CCN(c4ccc(C(=O)NC5C(C)(C)C(Oc6ccc(C#N)c(Cl)c6)C5(C)C)cn4)CC3)n2C)C(C)C)cc1` (stereo partly drawn) [Example 701, N-((1r,3r)-3-(3-chloro-4-cyanophenoxy)-2,2,4,4-tetramethylcyclobutyl)-6-(4-(3-(2-((R)-1-((2S,4R)-4-hydroxy-2-(((S)-1-(4-(4-methylthiazol-5-yl)phenyl)ethyl)carbam-oyl)pyrrolidin-1-yl)-3-methyl-1-oxobutan-2-yl)-1-methyl-1H-imidazol-5-yl)propyl)piperazin-1-y)nicotinamide], the “VCaP Dmax (%)” value (VCaP cells; Table 36) is reported as “+ (Dmax ≤ 25%)” and the DC50 [1] is reported as > 501 nM.
For `Cn1cncc1-c1ccc(CNC(=O)[C@@H]2C[C@@H](O)CN2C(=O)[C@@H](NC(=O)COCCCCOc2ccc(-c3ccc(N4C(=S)N(c5ccc(C#N)c(C(F)(F)F)c5)C(=O)C4(C)C)cc3)cc2)C(C)(C)C)cc1` [Example 104, (2S,4R)-1-[(2S)-2-(2-{4-[4-(4-{3-[4-cyano-3-(trifluoromethyl)phenyl]-5,5-dimethyl-4-oxo-2-sulfanylideneimidazolidin-1-yl}phenyl)phenoxy]butoxy}acetamido)-3,3-dimethylbutanoyl]-4-hydroxy-N-{[4-(1-methyl-1H-imidazol-5-yl)phenyl]methyl}pyrrolidine-2-carboxamide], the Dmax (VCaP, read-out: VCaP Dmax (%)) was > 71% and the DC50 (read-out: VCaP DC50; concentration that caused 50% Androgen Receptor degradation, VCaP cells (Table 32)) was < 50 nM.
In the case of `CC(C)(C)[C@H](NC(=O)COCCCCOc1ccc(C(=O)N[C@H]2C(C)(C)[C@H](Oc3ccc(C#N)c(Cl)c3)C2(C)C)cc1)C(=O)N1C[C@H](O)C[C@H]1C(=O)NCc1ccc(-c2ccccc2)cc1` [Example 407], the DC50 [3] is reported as < 50 nM and the Dmax [4] is reported as 51 to 70%.
